Experimental data as given in the NIST ThermoML archive (doi:10.1016/j.fluid.2017.12.001).

Assay: xn = mol fraction of the nth substance listed
Settings: 100.9 kPa, Liquid; for viscosity: Concentric cylinders viscometry; for speed of sound: Single path-length method; for mass density: Vibrating tube method

CCCC(=O)[O-].CC[NH2+]CC [diethylammonium butanoate] + O
Settings	mass density [kg/m3]	speed of sound [m/s]	viscosity [mPa·s]
323.15 K, x1 = 0.0122	–	–	0.84
323.15 K, x1 = 0.0123	990.45	1618.6	–
323.15 K, x1 = 0.0451	–	–	1.72
323.15 K, x1 = 0.0453	991.08	1724.2	–
323.15 K, x1 = 0.0999	–	–	3.8
323.15 K, x1 = 0.1005	984.28	1708.8	–
323.15 K, x1 = 0.143	–	–	5.75
323.15 K, x1 = 0.1439	971.05	1672.4	–
323.15 K, x1 = 0.2051	–	–	8.98
323.15 K, x1 = 0.2067	964.37	1612.6	–
323.15 K, x1 = 0.3064	–	–	14.26
323.15 K, x1 = 0.3096	949.4	1531.7	–
323.15 K, x1 = 0.4879	–	–	19.64
323.15 K, x1 = 0.4951	926.37	1446.2	–
323.15 K, x1 = 0.6684	–	–	20.46
323.15 K, x1 = 0.6812	918.45	1384.7	–
323.15 K, x1 = 0.7974	900.35	1379.5	–
323.15 K, x1 = 0.974	895.2	1343.3	18.14
325.65 K, x1 = 0.0122	–	–	0.8
325.65 K, x1 = 0.0451	–	–	1.62
325.65 K, x1 = 0.0999	–	–	3.53
325.65 K, x1 = 0.143	–	–	5.31
325.65 K, x1 = 0.2051	–	–	8.24
325.65 K, x1 = 0.3064	–	–	12.94
325.65 K, x1 = 0.4879	–	–	17.73
325.65 K, x1 = 0.6684	–	–	18.49
325.65 K, x1 = 0.974	–	–	16.45
328.15 K, x1 = 0.0122	–	–	0.75
328.15 K, x1 = 0.0451	–	–	1.52
328.15 K, x1 = 0.0999	–	–	3.29
328.15 K, x1 = 0.143	–	–	4.92
328.15 K, x1 = 0.2051	–	–	7.58
328.15 K, x1 = 0.3064	–	–	11.79
328.15 K, x1 = 0.4879	–	–	16.02
328.15 K, x1 = 0.6684	–	–	16.76
328.15 K, x1 = 0.974	–	–	14.94
330.65 K, x1 = 0.0122	–	–	0.72
330.65 K, x1 = 0.0451	–	–	1.44
330.65 K, x1 = 0.0999	–	–	3.07
330.65 K, x1 = 0.143	–	–	4.57
330.65 K, x1 = 0.2051	–	–	6.99
330.65 K, x1 = 0.3064	–	–	10.77
330.65 K, x1 = 0.4879	–	–	14.54
330.65 K, x1 = 0.6684	–	–	15.23
330.65 K, x1 = 0.974	–	–	13.61
333.15 K, x1 = 0.0122	–	–	0.69
333.15 K, x1 = 0.0451	–	–	1.36
333.15 K, x1 = 0.0999	–	–	2.87
333.15 K, x1 = 0.143	–	–	4.25
333.15 K, x1 = 0.2051	–	–	6.46
333.15 K, x1 = 0.3064	–	–	9.86
333.15 K, x1 = 0.4879	–	–	13.24
333.15 K, x1 = 0.6684	–	–	13.86
333.15 K, x1 = 0.974	–	–	12.38
335.65 K, x1 = 0.0122	–	–	0.66
335.65 K, x1 = 0.0451	–	–	1.29
335.65 K, x1 = 0.0999	–	–	2.7
335.65 K, x1 = 0.143	–	–	3.96
335.65 K, x1 = 0.2051	–	–	5.98
335.65 K, x1 = 0.3064	–	–	9.05
335.65 K, x1 = 0.4879	–	–	12.07
335.65 K, x1 = 0.6684	–	–	12.64
335.65 K, x1 = 0.974	–	–	11.33
338.15 K, x1 = 0.0122	–	–	0.64
338.15 K, x1 = 0.0451	–	–	1.22
338.15 K, x1 = 0.0999	–	–	2.53
338.15 K, x1 = 0.143	–	–	3.7
338.15 K, x1 = 0.2051	–	–	5.55
338.15 K, x1 = 0.3064	–	–	8.33
338.15 K, x1 = 0.4879	–	–	11.03
338.15 K, x1 = 0.6684	–	–	11.56
338.15 K, x1 = 0.974	–	–	10.37
340.65 K, x1 = 0.0122	–	–	0.61
340.65 K, x1 = 0.0451	–	–	1.16
340.65 K, x1 = 0.0999	–	–	2.39
340.65 K, x1 = 0.143	–	–	3.46
340.65 K, x1 = 0.2051	–	–	5.16
340.65 K, x1 = 0.3064	–	–	7.68
340.65 K, x1 = 0.4879	–	–	10.11
340.65 K, x1 = 0.6684	–	–	10.59
340.65 K, x1 = 0.974	–	–	9.48
343.15 K, x1 = 0.0122	–	–	0.59
343.15 K, x1 = 0.0451	–	–	1.1
343.15 K, x1 = 0.0999	–	–	2.25
343.15 K, x1 = 0.143	–	–	3.24
343.15 K, x1 = 0.2051	–	–	4.81
343.15 K, x1 = 0.3064	–	–	7.09
343.15 K, x1 = 0.4879	–	–	9.28
343.15 K, x1 = 0.6684	–	–	9.64
343.15 K, x1 = 0.974	–	–	8.7
